Consider one compound from patent US20250009734A1, “METHODS OF INHIBITING FOXO1 FOR TREATMENT OF LYMPHATIC DISORDERS” (UNIVERSITY OF SOUTH FLORIDA, priority 2023, published 2025).

Data set [1] has as its system Foxc2^+/CreERT2 mice. The data set is described as follows: Whole-mount immunostaining of mesenteric collecting lymphatic vessels after injection. The class given is in vivo, mouse. An excerpt:
FIG. 4. AS1842856 injection promotes b-catenin nuclear localization in vivo. Panels A-P′ show whole-mount immunostaining of P10 mesenteric collecting lymphatic vessels from wildtype and Foxc2^+/CreERT2 pups with vehicle control (DMSO) or AS1842856 injection. Prox1 in green, Ctnnb1 in purple, and VE-cadherin in gray. A′-P′ are the higher magnification images of the white box areas in A-P. Scale bars are 100 μm.
Foxc2 is a chief regulator of lymphatic valve development modulating the expression of many valve genes (Sabine et al., 2015). While Foxc2 null animals are embryonic lethal, the Foxc2 heterozygous mice are a model of the human disease lymphedema-distichiasis with severe lymphatic valve loss (Kriederman et al., 2003, Petrova et al., 2004). To test whether AS1842856 treatment increases valve growth in vivo, the inventors intraperitoneally (i.p.) injected AS1842856 into Foxc2^+/CreERT2 pups. […] Since the open reading frame in one allele of the Foxc2 gene is replaced with the cDNA for CreERT2, the Foxc2^+/CreERT2 mice is heterozygous for Foxc2 gene (Geng et al., 2016). […] To compare the number of valves from these 4 groups, the inventors counted total number of valves from 6 branches (from the lymph nodes to the gut wall) in the mesentery and measured the total length of these branches as previously published (Scallan et al., 2021). […]

For data set [2] the following is noted: Nagashima et al., 2010; cited from earlier work.
The test system of data set [3] is Foxc2^+/CreERT2 mice. The data set is described as follows: Mesenteric lymphatic valve counting after i.p. injection in pups. The class given is in vivo, mouse. An excerpt: FIGS. 3A-3F. AS1842856 treatment in vivo increases valve number in Foxc2^+/CreERT2 mice. (A) Schematic illustration of AS1842856 injection procedure in postnatal day (P) 7-21 pups. (B-E) Fluorescent images showing the morphology of mesenteric collecting lymphatic vessels at P21. Mesenteries are from Prox1-GFP with DMSO (vehicle control) injection (B); Prox1-GFP with AS1842856 injection (C); Foxc2^+/CreERT2; Prox1-GFP with DMSO injection (D); Foxc2^+/CreERT2; Prox1-GFP with AS1842856 injection (E). (F) Quantification of valves per millimeter at P21 from 4 groups of mice. 4 mice are used for the analysis. All values are mean±SEM. Two-way ANOVA was performed with Turkey's multiple comparisons. ns=not significant, *p≤0.05, ***p<0.001. Scale bar is 1000 μm.
Foxc2 is a chief regulator of lymphatic valve development modulating the expression of many valve genes (Sabine et al., 2015). While Foxc2 null animals are embryonic lethal, the Foxc2 heterozygous mice are a model of the human disease lymphedema-distichiasis with severe lymphatic valve loss (Kriederman et al., 2003, Petrova et al., 2004). To test whether AS1842856 treatment increases valve growth in vivo, the inventors intraperitoneally (i.p.) injected AS1842856 into Foxc2^+/CreERT2 pups. Instead of using wildtype pups as control, Prox1-GFP mice were used as control as well as for visualizing the lymphatic vasculature (Choi et al., 2011). The Foxc2^+/CreERT2 pups were also bred to carry the Prox1-GFP allele. Since the open reading frame in one allele of the Foxc2 gene is replaced with the cDNA for CreERT2, the Foxc2^+/CreERT2 mice is heterozygous for Foxc2 gene (Geng et al., 2016). […] To compare the number of valves from these 4 groups, the inventors counted total number of valves from 6 branches (from the lymph nodes to the gut wall) in the mesentery and measured the total length of these branches as previously published (Scallan et al., 2021). […]
TM administered postnatal pups were euthanized using an IACUC approved method and the colleting lymphatics were analyzed at the experimental timepoints. […]

Regarding `CCn1cc(C(=O)O)c(=O)c2c(N)c(F)c(NC3CCCCC3)cc21` [AS1842856], in data set [1] (AS1842856 treated Foxc2^+/CreERT2 pups), the “valves expressing Itga9 (whole-mount immunostaining)” value is on record as “all the valves”. The “nuclear localization of β-catenin in mesenteric LECs in vivo” value in data set [1] (P10 mesenteries after two injections, wildtype and Foxc2^+/CreERT2 pups, vs DMSO injected group) is on record as “increased nuclear purple staining from β-catenin”. In data set [2], the cell permeability entry is “cell permeable”. In addition, the valves/mm in mesentery entry is on record as “significantly higher” in data set [3] (Foxc2^+/CreERT2 pups with AS1842856 injection (8 mg/kg i.p. every other day P7-P21) vs Foxc2^+/CreERT2 pups with DMSO injection), “still significantly lower” in data set [3] (Foxc2^+/CreERT2 pups with AS1842856 injection (8 mg/kg i.p. every other day P7-P21) vs Prox1-GFP pups with DMSO injection) and “no significant difference” in data set [3] (Prox1-GFP pups with AS1842856 injection (8 mg/kg i.p. every other day P7-P21) vs Prox1-GFP pups with DMSO injection).
